The results in this text go back to patent US8580794B2 (AbbVie Inc., priority 2009, dated 2013).

The target of the test is GST-Bc1-2 (Homo sapiens, UniProt P10415). In words: Time Resolved-Fluorescence Resonance Energy Transfer (TR-FRET) Bcl-2 binding assay with F-Bak peptide probe. The conditions noted are these: GST-Bcl-2 1 nM, F-Bak probe 100 nM, Tb-anti-GST 1 nM; '<' = below limit of detection; read-out: TR-FRET Bcl-2 Binding Ki. (In TR-FRET formats the signal depends on donor and acceptor labels being close together.)
GST-Bc1-2, sequence (P10415 whole entry): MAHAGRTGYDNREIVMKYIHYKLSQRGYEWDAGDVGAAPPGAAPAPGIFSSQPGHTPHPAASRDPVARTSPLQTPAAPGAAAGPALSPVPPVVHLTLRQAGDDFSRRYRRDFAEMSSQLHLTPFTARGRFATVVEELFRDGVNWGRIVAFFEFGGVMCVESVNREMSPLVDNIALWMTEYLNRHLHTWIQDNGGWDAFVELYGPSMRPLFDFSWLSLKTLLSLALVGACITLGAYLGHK

The Ki is the equilibrium dissociation constant of an inhibitor or competing ligand from its target. As for `CC1(C)CCC(CN2CCN(c3ccc(C(=O)NS(=O)(=O)c4ccc(NCc5cccc(OC(F)(F)F)c5)c([N+](=O)[O-])c4)c(Oc4cnc5[nH]ccc5c4)c3)CC2)=C(c2ccc(Cl)cc2)C1` [Example 175, 4-(4-{[2-(4-chlorophenyl)-4,4-dimethylcyclohex-1-en-1-yl]methyl}piperazin-1-yl)-N-[(3-nitro-4-{[3-(trifluoromethoxy)benzyl]amino}phenyl)sulfonyl]-2-(1H-pyrrolo[2,3-b]pyridin-5-yloxy)benzamide], the Ki amounted to 0.119 nM.
Take `COc1cccc(CNc2ccc(S(=O)(=O)NC(=O)c3ccc(N4CCN(CC5=C(c6ccc(Cl)cc6)CC(C)(C)CC5)CC4)cc3Oc3cnc4[nH]ccc4c3)cc2[N+](=O)[O-])c1` [Example 176, 4-(4-{[2-(4-chlorophenyl)-4,4-dimethylcyclohex-1-en-1-yl]methyl}piperazin-1-yl)-N-({4-[(3-methoxybenzyl)amino]-3-nitrophenyl}sulfonyl)-2-(1H-pyrrolo[2,3-b]pyridin-5-yloxy)benzamide]: the Ki was determined as 0.023 nM.
For the molecule `CC1(C)CCC(CN2CCN(c3ccc(C(=O)NS(=O)(=O)c4ccc(NCc5ccc(OC(F)F)cc5)c([N+](=O)[O-])c4)c(Oc4cnc5[nH]ccc5c4)c3)CC2)=C(c2ccc(Cl)cc2)C1` [Example 177, 4-(4-{[2-(4-chlorophenyl)-4,4-dimethylcyclohex-1-en-1-yl]methyl}piperazin-1-yl)-N-[(4-{[4-(difluoromethoxy)benzyl]amino}-3-nitrophenyl)sulfonyl]-2-(1H-pyrrolo[2,3-b]pyridin-5-yloxy)benzamide], the Ki is 0.111 nM.
Then `CC1(C)CCC(CN2CCN(c3ccc(C(=O)NS(=O)(=O)c4ccc(NC5CCC6(CC5)OCCO6)c([N+](=O)[O-])c4)c(Oc4cnc5[nH]ccc5c4)c3)CC2)=C(c2ccc(Cl)cc2)C1` [Example 178, 4-(4-{[2-(4-chlorophenyl)-4,4-dimethylcyclohex-1-en-1-yl]methyl}piperazin-1-yl)-N-{[4-(1,4-dioxaspiro[4.5]dec-8-ylamino)-3-nitrophenyl]sulfonyl}-2-(1H-pyrrolo[2,3-b]pyridin-5-yloxy)benzamide], with 0.076 nM; and `CC(=O)N[C@H]1CC[C@H](Nc2ccc(S(=O)(=O)NC(=O)c3ccc(N4CCN(CC5=C(c6ccc(Cl)cc6)CC(C)(C)CC5)CC4)cc3Oc3cnc4[nH]ccc4c3)cc2[N+](=O)[O-])CC1` [Example 179, Trans-N-[(4-{[4-(acetylamino)cyclohexyl]amino}-3-nitrophenyl)sulfonyl]-4-(4-{[2-(4-chlorophenyl)-4,4-dimethylcyclohex-1-en-1-yl]methyl}piperazin-1-yl)-2-(1H-pyrrolo[2,3-b]pyridin-5-yloxy)benzamide], with less than 0.01 nM; and `CC1(C)CCC(CN2CCN(c3ccc(C(=O)NS(=O)(=O)c4ccc(N[C@@H]5CCN(CC(F)F)C5)c([N+](=O)[O-])c4)c(Oc4cnc5[nH]ccc5c4)c3)CC2)=C(c2ccc(Cl)cc2)C1` [Example 180, 4-(4-{[2-(4-chlorophenyl)-4,4-dimethylcyclohex-1-en-1-yl]methyl}piperazin-1-yl)-N-[(4-{[(3R)-1-(2,2-difluoroethyl)pyrrolidin-3-yl]amino}-3-nitrophenyl)sulfonyl]-2-(1H-pyrrolo[2,3-b]pyridin-5-yloxy)benzamide], with less than 0.01 nM.
For `CC1(C)CCC(CN2CCN(c3ccc(C(=O)NS(=O)(=O)c4ccc(N[C@H]5CCN(CCF)C5)c([N+](=O)[O-])c4)c(Oc4cnc5[nH]ccc5c4)c3)CC2)=C(c2ccc(Cl)cc2)C1` [Example 181, 4-(4-{[2-(4-chlorophenyl)-4,4-dimethylcyclohex-1-en-1-yl]methyl}piperazin-1-yl)-N-[(4-{[(3S)-1-(2-fluoroethyl)pyrrolidin-3-yl]amino}-3-nitrophenyl)sulfonyl]-2-(1H-pyrrolo[2,3-b]pyridin-5-yloxy)benzamide], the Ki worked out at 0.017 nM.
As for `CC1(C)CCC(CN2CCN(c3ccc(C(=O)NS(=O)(=O)c4ccc(N[C@H]5CCN(CC(F)F)C5)c([N+](=O)[O-])c4)c(Oc4cnc5[nH]ccc5c4)c3)CC2)=C(c2ccc(Cl)cc2)C1` [Example 182, 4-(4-{[2-(4-chlorophenyl)-4,4-dimethylcyclohex-1-en-1-yl]methyl}piperazin-1-yl)-N-[(4-{[(3S)-1-(2,2-difluoroethyl)pyrrolidin-3-yl]amino}-3-nitrophenyl)sulfonyl]-2-(1H-pyrrolo[2,3-b]pyridin-5-yloxy)benzamide], the Ki is 0.068 nM.
The figure for `CC1(C)CCC(CN2CCN(c3ccc(C(=O)NS(=O)(=O)c4ccc(NCc5ccc(O)cc5)c([N+](=O)[O-])c4)c(Oc4cnc5[nH]ccc5c4)c3)CC2)=C(c2ccc(Cl)cc2)C1` [Example 185, 4-(4-{[2-(4-chlorophenyl)-4,4-dimethylcyclohex-1-en-1-yl]methyl}piperazin-1-yl)-N-({4-[(4-hydroxybenzyl)amino]-3-nitrophenyl}sulfonyl)-2-(1H-pyrrolo[2,3-b]pyridin-5-yloxy)benzamide] is 0.022 nM; for `CC1(C)CCC(CN2CCN(c3ccc(C(=O)NS(=O)(=O)c4ccc(NCc5cccc(O)c5)c([N+](=O)[O-])c4)c(Oc4cnc5[nH]ccc5c4)c3)CC2)=C(c2ccc(Cl)cc2)C1` [Example 186, 4-(4-{[2-(4-chlorophenyl)-4,4-dimethylcyclohex-1-en-1-yl]methyl}piperazin-1-yl)-N-({4-[(3-hydroxybenzyl)amino]-3-nitrophenyl}sulfonyl)-2-(1H-pyrrolo[2,3-b]pyridin-5-yloxy)benzamide] it is 0.047 nM; for `CC1(C)CCC(CN2CCN(c3ccc(C(=O)NS(=O)(=O)c4ccc(NCc5cccc(OC(F)F)c5)c([N+](=O)[O-])c4)c(Oc4cnc5[nH]ccc5c4)c3)CC2)=C(c2ccc(Cl)cc2)C1` [Example 187, 4-(4-{[2-(4-chlorophenyl)-4,4-dimethylcyclohex-1-en-1-yl]methyl}piperazin-1-yl)-N-[(4-{[3-(difluoromethoxy)benzyl]amino}-3-nitrophenyl)sulfonyl]-2-(1H-pyrrolo[2,3-b]pyridin-5-yloxy)benzamide] it is 0.08 nM.
Then `CC1(C)CCC(CN2CCN(c3ccc(C(=O)NS(=O)(=O)c4ccc(NC5CCN(C6CC6)CC5)c(S(=O)(=O)C(F)(F)F)c4)c(Oc4cnc5[nH]ccc5c4)c3)CC2)=C(c2ccc(Cl)cc2)C1` [Example 190, 4-(4-{[2-(4-chlorophenyl)-4,4-dimethylcyclohex-1-en-1-yl]methyl}piperazin-1-yl)-N-({4-[(1-cyclopropylpiperidin-4-yl)amino]-3-[(trifluoromethyl)sulfonyl]phenyl}sulfonyl)-2-(1H-pyrrolo[2,3-b]pyridin-5-yloxy)benzamide], with 0.026 nM; and `CC1(C)CCC(CN2CCN(c3ccc(C(=O)NS(=O)(=O)c4ccc(OCC5(F)CCN(C6CCOCC6)CC5)c([N+](=O)[O-])c4)c(Oc4cnc5[nH]ccc5c4)c3)CC2)=C(c2ccc(Cl)cc2)C1` [Example 192, 4-(4-{[2-(4-chlorophenyl)-4,4-dimethylcyclohex-1-en-1-yl]methyl}piperazin-1-yl)-N-({4-[(4-fluoro-1-tetrahydro-2H-pyran-4-ylpiperidin-4-yl)methoxy]-3-nitrophenyl}sulfonyl)-2-(1H-pyrrolo[2,3-b]pyridin-5-yloxy)benzamide], with less than 0.01 nM.
Consider `CC1(C)CCC(CN2CCN(c3ccc(C(=O)NS(=O)(=O)c4ccc(OCC5(F)CCN(C6CCOC6)CC5)c([N+](=O)[O-])c4)c(Oc4cnc5[nH]ccc5c4)c3)CC2)=C(c2ccc(Cl)cc2)C1` (stereo not drawn) [Example 193, 4-(4-{[2-(4-chlorophenyl)-4,4-dimethylcyclohex-1-en-1-yl]methyl}piperazin-1-yl)-N-({4-[(4-fluoro-1-tetrahydrofuran-3-ylpiperidin-4-yl)methoxy]-3-nitrophenyl}sulfonyl)-2-(1H-pyrrolo[2,3-b]pyridin-5-yloxy)benzamide], for which the Ki is less than 0.01 nM.
The figure for `CC1(C)CCC(CN2CCN(c3ccc(C(=O)NS(=O)(=O)c4ccc(OCC5(F)CCN(S(C)(=O)=O)CC5)c([N+](=O)[O-])c4)c(Oc4cnc5[nH]ccc5c4)c3)CC2)=C(c2ccc(Cl)cc2)C1` [Example 194, 4-(4-{[2-(4-chlorophenyl)-4,4-dimethylcyclohex-1-en-1-yl]methyl}piperazin-1-yl)-N-[(4-{[4-fluoro-1-(methylsulfonyl)piperidin-4-yl]methoxy}-3-nitrophenyl)sulfonyl]-2-(1H-pyrrolo[2,3-b]pyridin-5-yloxy)benzamide] is less than 0.01 nM; for `CC1(C)CCC(CN2CCN(c3ccc(C(=O)NS(=O)(=O)c4ccc(NC[C@H]5CCN(C6COC6)C5)c([N+](=O)[O-])c4)c(Oc4cnc5[nH]ccc5c4)c3)CC2)=C(c2ccc(Cl)cc2)C1` [Example 195, 4-(4-{[2-(4-chlorophenyl)-4,4-dimethylcyclohex-1-en-1-yl]methyl}piperazin-1-yl)-N-{[3-nitro-4-({[(3R)-1-oxetan-3-ylpyrrolidin-3-yl]methyl}amino)phenyl]sulfonyl}-2-(1H-pyrrolo[2,3-b]pyridin-5-yloxy)benzamide] it is less than 0.01 nM.
The figure for `CN(C)CCCOc1ccc(CNc2ccc(S(=O)(=O)NC(=O)c3ccc(N4CCN(CC5=C(c6ccc(Cl)cc6)CC(C)(C)CC5)CC4)cc3Oc3cnc4[nH]ccc4c3)cc2[N+](=O)[O-])cc1` [Example 197, 4-(4-{[2-(4-chlorophenyl)-4,4-dimethylcyclohex-1-en-1-yl]methyl}piperazin-1-yl)-N-{[4-({4-[3-(dimethylamino)propoxy]benzyl}amino)-3-nitrophenyl]sulfonyl}-2-(1H-pyrrolo[2,3-b]pyridin-5-yloxy)benzamide] is less than 0.01 nM; for `CC1(C)CCC(CN2CCN(c3ccc(C(=O)NS(=O)(=O)c4ccc(NCc5ccc(OCCN6CCOCC6)cc5)c([N+](=O)[O-])c4)c(Oc4cnc5[nH]ccc5c4)c3)CC2)=C(c2ccc(Cl)cc2)C1` [Example 198, 4-(4-{[2-(4-chlorophenyl)-4,4-dimethylcyclohex-1-en-1-yl]methyl}piperazin-1-yl)-N-[(4-{[4-(2-morpholin-4-ylethoxy)benzyl]amino}-3-nitrophenyl)sulfonyl]-2-(1H-pyrrolo[2,3-b]pyridin-5-yloxy)benzamide] it is less than 0.01 nM.
